Calls of active or inactive are those of the source. The calls are words filed in the database; no cut-off is given here.
What was measured:
MDA-MB-231 = assay: Antiproliferative activity against human MDA-MB-231 cells measured after 48 hrs by MTT assay; format: functional, cell-based; conditions: MDA-MB-231, 48 h
Huh-7 [1] = assay: Induction of ER stress in human Huh-7 cells assessed as increase in IRE1 protein level at 2 to 4 uM incubated for 48 hrs by Western blot analysis; format: functional, cell-based; conditions: dose 2-4 µM
Huh-7 [2] = assay: Induction of ER stress in human Huh-7 cells assessed as increase in ATF6 protein level at 2 to 4 uM incubated for 48 hrs by Western blot analysis; format: functional, cell-based; conditions: dose 2-4 µM
Huh-7 [3] = assay: Induction of ER stress in human Huh-7 cells assessed as increase in PERK protein level at 4 uM incubated for 48 hrs in presence of 4pba by Western blot analysis; format: functional, cell-based
Huh-7 [4] = assay: Induction of ER stress in human Huh-7 cells assessed as increase in ATF6 protein level at 4 uM incubated for 48 hrs in presence of 4pba by Western blot analysis; format: functional, cell-based
Huh-7 [5] = assay: Induction of ER stress in human Huh-7 cells assessed as increase in CHOP protein level at 4 uM incubated for 48 hrs in presence of 4pba by Western blot analysis; format: functional, cell-based
Huh-7 [6] = assay: Upregulation of Caspase 12 expression level in human Huh-7 cells at 2 to 4 uM measured after 48 hrs by Western blot analysis; format: functional, cell-based; conditions: dose 2-4 µM
Huh-7 [7] = assay: Induction of ER stress in human Huh-7 cells assessed as increase in calcium ion content by measuring fluorescence intensity at 4 uM incubated for 24 hrs by fluorescence microscopy based analysis; format: functional, cell-based
Huh-7 [8] = assay: Induction of ER stress in human Huh-7 cells assessed as increase in calcium ion content by measuring fluorescence intensity at 4 uM incubated for 24 hrs in presence of […] by fluorescence microscopy based analysis; format: functional, cell-based
[9] = Drug localization in endoplasmic reticulum of human Huh-7 cells assessed as colocalization at 100 uM measured within 1 hr by fluorescence based analysis; format: ADME, subcellular; conditions: huh-7, 1 h
Huh-7 [10] = assay: Induction of ER damage in human Huh-7 cells assessed as decrease in glycoprotein content at 2 to 4 uM incubated for 48 hrs by ELISA method; format: functional, cell-based; conditions: dose 2-4 µM
Huh-7 [11] = assay: Induction of ER damage in human Huh-7 cells assessed as decrease in protein-disulfide bond content at 2 to 4 uM incubated for 48 hrs by absorbance based analysis; format: functional, cell-based; conditions: dose 2-4 µM
Huh-7 [12] = assay: Induction of morphological change in human Huh-7 cells assessed as decrease in number of cells at 2 to 4 uM measured after 48 hrs by HE staining based microscopic analysis; format: functional, cell-based; conditions: dose 2-4 µM
Huh-7 [13] = assay: Induction of morphological change in human Huh-7 cells assessed as appearance of condensed cell nucleus at 2 to 4 uM measured after 48 hrs by HE staining based microscopic analysis; format: functional; conditions: dose 2-4 µM
Huh-7 [14] = assay: Induction of morphological change in human Huh-7 cells assessed as nuclear edge aggregation at 2 to 4 uM measured after 48 hrs by HE staining based microscopic analysis; format: functional, cell-based; conditions: dose 2-4 µM
Huh-7 [15] = assay: Induction of morphological change in human Huh-7 cells assessed as membrane wrinkling at 2 to 4 uM measured after 48 hrs by HE staining based microscopic analysis; format: functional, cell-based; conditions: dose 2-4 µM
Huh-7 [16] = assay: Induction of morphological change in human Huh-7 cells assessed as nuclear pyknosis at 2 to 4 uM measured after 48 hrs by HE staining based microscopic analysis; format: functional, cell-based; conditions: dose 2-4 µM
Huh-7 [17] = assay: Upregulation of Bax protein level in human Huh-7 cells at 2 to 4 uM by Western blot analysis; format: functional, cell-based; conditions: dose 2-4 µM
Huh-7 [18] = assay: Upregulation of Cytochrome C level in human Huh-7 cells at 2 to 4 uM by Western blot analysis; format: functional, cell-based; conditions: dose 2-4 µM
Huh-7 [19] = assay: Induction of apoptosis in human Huh-7 cells assessed as necrotic cells at 2 uM measured after 48 hrs by Annexin V-PE staining based flow cytometry analysis (reference value: 3.37%); format: functional
Huh-7 [20] = assay: Induction of apoptosis in human Huh-7 cells assessed as late apoptotic cells at 2 uM measured after 48 hrs by Annexin V-PE staining based flow cytometry analysis (reference value: 2.06%); format: functional
Huh-7 [21] = assay: Induction of apoptosis in human Huh-7 cells assessed as early apoptotic cells at 2 uM measured after 48 hrs by Annexin V-PE staining based flow cytometry analysis (reference value: 0.88%); format: functional
Huh-7 [22] = assay: Induction of apoptosis in human Huh-7 cells assessed as viable cells at 2 uM measured after 48 hrs by Annexin V-PE staining based flow cytometry analysis (reference value: 93.69%); format: functional; conditions: read-out: Activity
Huh-7 [23] = assay: Induction of apoptosis in human Huh-7 cells assessed as necrotic cells at 4 uM measured after 48 hrs by Annexin V-PE staining based flow cytometry analysis (reference value: 3.37%); format: functional
Huh-7 [24] = assay: Induction of apoptosis in human Huh-7 cells assessed as early apoptotic cells at 4 uM measured after 48 hrs by Annexin V-PE staining based flow cytometry analysis (reference value: 0.88%); format: functional
Huh-7 [25] = assay: Induction of apoptosis in human Huh-7 cells assessed as viable cells at 4 uM measured after 48 hrs by Annexin V-PE staining based flow cytometry analysis (reference value: 93.69%); format: functional; conditions: read-out: Activity
Huh-7 [26] = assay: Induction of apoptosis in human Huh-7 cells assessed as viable cells at 8 uM measured after 48 hrs by Annexin V-PE staining based flow cytometry analysis (reference value: 93.69%); format: functional; conditions: read-out: Activity
Huh-7 [27] = assay: Induction of apoptosis in human Huh-7 cells assessed as early apoptotic cells at 8 uM measured after 48 hrs by Annexin V-PE staining based flow cytometry analysis (reference value: 0.88%); format: functional
Huh-7 [28] = assay: Induction of apoptosis in human Huh-7 cells assessed as late apoptotic cells at 8 uM measured after 48 hrs by Annexin V-PE staining based flow cytometry analysis (reference value: 2.06%); format: functional
Huh-7 [29] = assay: Induction of apoptosis in human Huh-7 cells assessed as necrotic cells at 8 uM measured after 48 hrs by Annexin V-PE staining based flow cytometry analysis (reference value: 3.37%); format: functional
Huh-7 [30] = assay: Induction of apoptosis in human Huh-7 cells assessed as viable cells at 8 uM measured after 48 hrs in presence of Z-VAD by Annexin V-PE staining based flow cytometry analysis (reference value: 93.69%); format: functional; conditions: read-out: Activity
Huh-7 [31] = assay: Induction of apoptosis in human Huh-7 cells assessed as early apoptotic cells at 8 uM measured after 48 hrs in presence of Z-VAD by Annexin V-PE staining based flow cytometry analysis (reference value: 0.88%); format: functional
Huh-7 [32] = assay: Induction of apoptosis in human Huh-7 cells assessed as late apoptotic cells at 8 uM measured after 48 hrs in presence of Z-VAD by Annexin V-PE staining based flow cytometry analysis (reference value: 2.06%); format: functional
Huh-7 [33] = assay: Induction of apoptosis in human Huh-7 cells assessed as necrotic cells at 8 uM measured after 48 hrs in presence of Z-VAD by Annexin V-PE staining based flow cytometry analysis (reference value: 3.37%); format: functional
Huh-7 [34] = assay: Induction of mitochondrial ROS release in human Huh-7 cells at 2 uM measured after 24 hrs by fluorescent microscopic analysis; format: functional, cell-based
Huh-7 [35] = assay: Induction of mitochondrial ROS release in human Huh-7 cells at 2 uM measured after 24 hrs in presence of […] by fluorescent microscopic analysis; format: functional, cell-based

COc1ccc(COc2cccc3c2C(=O)c2c(OCc4ccc(OC)cc4)cc(C(=O)NCCNCCO)cc2C3=O)cc1
IC50 (MDA-MB-231): 600 nM | Activity (Huh-7 [1]): Active | Activity (Huh-7 [2]): Active | Activity (Huh-7 [3]): inactive | Activity (Huh-7 [4]): inactive | Activity (Huh-7 [5]): inactive | Activity (Huh-7 [6]): Active | Activity (Huh-7 [7]): Active | Activity (Huh-7 [8]): inactive | Drug uptake [9]: Active | Activity (Huh-7 [10]): Active | Activity (Huh-7 [11]): Active | Activity (Huh-7 [12]): Active | Activity (Huh-7 [13]): Active | Activity (Huh-7 [14]): Active | Activity (Huh-7 [15]): Active | Activity (Huh-7 [16]): Active | Activity (Huh-7 [17]): Active | Activity (Huh-7 [18]): Active | Activity (Huh-7 [19]): 6.06% | Activity (Huh-7 [20]): 4.4% | Activity (Huh-7 [21]): 65.4% | viability at 2 µM (Huh-7 [22]): 24.1% | Activity (Huh-7 [23]): 8.55% | Activity (Huh-7 [24]): 43.64% | viability at 4 µM (Huh-7 [25]): 40.2% | viability at 8 µM (Huh-7 [26]): 23.7% | Activity (Huh-7 [27]): 68.79% | Activity (Huh-7 [28]): 6.32% | Activity (Huh-7 [29]): 1.2% | viability at 8 µM (Huh-7 [30]): 68.5% | Activity (Huh-7 [31]): 16.45% | Activity (Huh-7 [32]): 4.41% | Activity (Huh-7 [33]): 10.59% | Activity (Huh-7 [34]): Active | Activity (Huh-7 [35]): inactive
